# Reference: patent US10426758B2, “Sibiriline derivatives for use for preventing and/or treating disorders associated with cellular necroptosis” (Institut National de la Sante et de la Recherche Medicale …, priority 2015, dated 2019)
# Target: T1, Human RIPK1 full length GST-tagged (Homo sapiens, UniProt Q13546)
# T1 construct: Human RIPK1 full length GST-tagged; made in house; host or cells: Sf9 insect cells (Bac-to-Bac baculovirus system)
# T1 sequence (Q13546 1-671): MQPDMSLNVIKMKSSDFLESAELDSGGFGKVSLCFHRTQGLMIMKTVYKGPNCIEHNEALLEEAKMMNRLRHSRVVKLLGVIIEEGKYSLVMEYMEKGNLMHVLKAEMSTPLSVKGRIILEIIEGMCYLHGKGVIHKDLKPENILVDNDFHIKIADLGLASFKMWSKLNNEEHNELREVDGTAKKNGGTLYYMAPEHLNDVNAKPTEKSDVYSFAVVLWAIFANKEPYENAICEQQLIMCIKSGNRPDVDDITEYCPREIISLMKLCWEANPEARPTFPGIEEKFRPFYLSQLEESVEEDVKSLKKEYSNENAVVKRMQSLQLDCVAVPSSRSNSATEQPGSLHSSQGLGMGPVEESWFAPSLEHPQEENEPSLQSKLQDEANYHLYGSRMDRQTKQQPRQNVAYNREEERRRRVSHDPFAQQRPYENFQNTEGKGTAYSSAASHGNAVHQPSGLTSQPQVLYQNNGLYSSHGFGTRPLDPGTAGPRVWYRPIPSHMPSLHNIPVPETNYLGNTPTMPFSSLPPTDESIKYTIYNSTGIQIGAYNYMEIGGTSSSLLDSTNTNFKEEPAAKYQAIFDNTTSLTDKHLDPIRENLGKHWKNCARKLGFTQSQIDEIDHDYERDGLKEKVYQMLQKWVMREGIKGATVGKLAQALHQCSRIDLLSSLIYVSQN
# Test: RIPK1 autophosphorylation assay
# Assay type: biochemical
# Conditions: radioactively labeled RIPK1, [γ-32P] ATP, 30 minutes at 30° C.
# Protocol: Human RIPK1 full length GST-tagged was baculovirally expressed in Sf9 cells according to manufacturer's instructions (Bac-to-Bac expression system, Invitrogen) and purified using gluthation-sepharose beads (GE Healthcare). The elution was made in 50 mM Tris-HCl, pH 8.0 buffer supplemented with 30 mM reduced gluthatione (Sigma). The protocol used to detect the enzymatic activity is adapted from Miao and Degterev (Methods Mol. Biol. 2009, 559, 79-93). Kinase reaction was initiated mixing 5 μl of eluted RIPK1, 5 μl of 3× kinase reaction buffer (5 mM MOPS pH 7.2, 2.5 mM β-glycerophosphate, 4 mM MgCl2, 2.5 mM MnCl2, 1 mM EGTA, 0.4 mM EDTA, 50 μg/ml BSA, 0.05 mM DTT), 2 μl H2O and 3 μl of the tested molecule. The mixture was kept on ice for 10 minutes. During the incubation, the ATP solution was prepared by mixing 5 μl of 3× kinase reaction buffer, 4 μl H2O, 6 μl cold ATP at 150 μM and 2 μCi of [γ-^32P] ATP. Add the ATP solution and the tested inhibitor to the kinase and incubate for 30 minutes at 30° C. To stop the enzymatic reaction, 5 μl of loading buffer were added and solution was heated for 3 minutes at 95° C. 25 μl of each reaction were loaded per well in pre-cast NuPage 12% Bis-Tris gel (Life Technology). Autophosphorylated RIPK1 band was visualized on radiographic film after 6 h exposition at −80° C.
smiles,measurement,setting,value
"Oc1ccc(-c2cc3cccnc3[nH]2)cc1 [compound 2, 4-(1H-pyrrolo[2,3-b]pyridin-2-yl)phenol]",inhibition of RIPK1 autophosphorylation,,dose-dependent inhibition
same,inhibition of RIPK1 autophosphorylation,listed as Sib,inhibit the RIPK1 autophosphorylation
